Values quoted from earlier work in patent US12685710B2, “Administration of ciclopirox with no adversal gastrointestinal toxicity” (ATLAS MOLECULAR PHARMA, S.L., priority 2021, dated 2026).

Test system: patients with hematological malignancies

Cc1cc(C2CCCCC2)n(O)c(=O)c1 [ciclopirox olamine, 6-cyclohexyl-1-hydroxy-4-methyl-2 (1H)-pyridone with 2-aminoethanol in a 1:1 ratio]
grade 3 GI dose limiting toxicity (DLTs) and bowel inflammation, patients affected in cohort (oral, OraSweet formulation, 80 mg/m^2 (2.2 mg/kg) 4 times daily): 3/4
tolerability of once-daily dosing (oral, once daily up to and including 40 mg/m^2 (1.1 mg/kg)): well tolerated
gastrointestinal toxicity in Phase I study (patients treated with ciclopirox olamine): showed gastrointestinal toxicity
